Where two headings read alike, the source gives them in different places.
What was measured:
in vitro = format: cell-based, human; conditions: human, 50% reduction in the level of ATP in HOS cells
How it was run: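 Cells exposed to compounds over a concentration range for 48 hrs at 37° C. Viability read as cellular ATP by luciferase (ATPlite) luminescence after lysis, normalised to untreated cells; CC50 derived by regression fit.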

[1] = system: HIV-1 constructs containing wild-type IN; assay: microbe, parasite or virus in culture; format: cell-based
[2] = system: HIV-1 constructs containing mutant IN T66I; assay: Single-round HIV-1 infectivity assay, IN mutant T66I; format: cell-based; conditions: Human immunodeficiency virus 1; Table 8; read-out: EC50 (nM, IN mutants) T66I
Procedure: (§1) Single-Round HIV-1 Infectivity Assay.
(§2) Human embryonyl kidney cell culture cell line 293 was acquired from the American type Culture Collection (ATCC).
(§3) […]. […] The virus-containing supernatants were then harvested, clarified by low-speed centrifugation, filtrated, and diluted for preparation in infection assays. […] After compound incorporation and activation in the cell, 100 μL of virus-stock diluted to achieve a maximum luciferase signal between 0.2 and 1.5 RLUs was added to each well and further incubated at 37° C. for 48 hrs. […] Activity was normalized to infectivity in the absence of target compounds. KaleidaGraph (Synergy Software, Reading, Pa.) was used to perform regression analysis on the data. EC50 values were determined from the fit model.
(§4) pNLNgoMIVR^−ΔEnv.LUC has been described previously (Zhao et al. 2008). The integrase codon reading frame was removed from pNLNgoMIVR^−ΔEnv LUC (between KpnI and SalI sites) and placed between the KpnI and SalI sites of pBluescript II KS+. Using that construct as the wild-type template, we prepared the following HIV-1 Integrase-resistant mutants via the QuikChange II XL (Stratagene, La Jolla, Calif.) site-directed mutagenesis protocol: H51Y, T66I, E92Q, G118R, Y143R, Q148H, Q148K, N155H, R263K, G140S+Q148H, G140A+Q148K, E138K+Q148K, and H51Y+R263K. The following sense with cognate antisense (not shown) oligonucleotides (Integrated DNA Technologies, Coralville, Iowa) were used in the mutagenesis: H51Y, 5′-[…]-3; T66I, 5′-[…]-3′; E92Q, 5′-[…]-3′; G118R, 5′-[…]-3′; E138K, 5′-[…]-3; G140A, 5′-[…]-3; G140S, 5′-[…]-3′; Y143R, 5′-[…]-3′; Q148H, 5′-[…]-3′; Q148K, 5′-[…]-3; N155H, 5′-[…]-3′; R263K 5′-[…]-3′. The double mutation G140S+Q148H was constructed by using the previously generated Q148H mutant and the appropriate oligonucleotide for the 2nd mutation, G140S. The double mutation G140A+Q148K was made by using the Q148K mutant and the appropriate oligonucleotide for the 2nd mutation, G140A. The double mutation E138K+Q148K was made by using the Q148K mutant and the appropriate oligonucleotide for the 2nd mutation, E138K. The double mutation H51Y+R263K was constructed by using the previously generated H51Y mutant and the appropriate oligonucleotides for the 2nd mutation, R263K. The DNA sequence of each construct was verified independently by DNA sequence determination. The mutant integrase coding sequences from pBluescript II KS+ were then subcloned into pNLNgoMIVR^−ΔEnv LUC (between the KpnI and SalI sites) to produce the full-length mutant HIV-1 Integrase constructs. These DNA sequences were additionally checked independently by DNA sequence determination.

[3] = system: HIV-1 constructs containing mutant IN E92Q; assay: Single-round HIV-1 infectivity assay, IN mutant E92Q; format: cell-based; conditions: Human immunodeficiency virus 1; Table 8; read-out: EC50 (nM, IN mutants) E92Q
Procedure: as §1, §2, §3, §4

[4] = system: HIV-1 constructs containing mutant IN H51Y; assay: Single-round HIV-1 infectivity assay, IN mutant H51Y; format: cell-based; conditions: Human immunodeficiency virus 1; Table 8; read-out: EC50 (nM, IN mutants) H51Y
Procedure: as §1, §2, §3, §4

[5] = system: HIV-1 constructs containing mutant IN H51Y/R263K; assay: Single-round HIV-1 infectivity assay, IN double mutant H51Y/R263K; format: cell-based; conditions: Human immunodeficiency virus 1; Table 8; read-out: EC50 (nM, IN mutants) H51Y/R263K
Procedure: as §1, §2, §3, §4

[6] = system: HIV-1 constructs containing mutant IN E138K-Q148K; assay: Single-round HIV-1 infectivity assay, IN double mutant E138K-Q148K; format: cell-based
Procedure: as §1, §2, §3
pNLNgoMIVR^−ΔEnv.LUC has been described previously (Zhao et al. 2008). The integrase codon reading frame was removed from pNLNgoMIVR^−ΔEnv LUC (between KpnI and SalI sites) and placed between the KpnI and SalI sites of pBluescript II KS+. Using that construct as the wild-type template, we prepared the following HIV-1 Integrase-resistant mutants via the QuikChange II XL (Stratagene, La Jolla, Calif.) site-directed mutagenesis protocol: H51Y, T66I, E92Q, G118R, Y143R, Q148H, Q148K, N155H, R263K, G140S+Q148H, G140A+Q148K, E138K+Q148K, and H51Y+R263K. […]

HIV-1 WT IN = assay: High growth serum assays in cells (WT); format: cell-based
[7] = Human immunodeficiency virus 1, Table 8, WT IN, read-out: EC50 (nM, WT)
[8] = Human immunodeficiency virus 1, Table 3, WT IN, read-out: EC50 (nM, WT)
[9] = Human immunodeficiency virus 1, read-out: EC50 (nM), Table 9, WT, normal 5% serum
[10] = Human immunodeficiency virus 1, read-out: EC50 (nM), Table 9, 10% FBS
[11] = Human immunodeficiency virus 1, read-out: EC50 (nM), Table 9, 15% FBS

| SMILES | CC50 (in vitro; Table 8) | EC50 [1, 7] | EC50 [2] | EC50 [3] | EC50 [4] | EC50 [5] | CC50 (in vitro; Table 2) | CC50 (in vitro; Table 3) | CC50 (in vitro; Table 6) | SI [1] | Si (selectivity index) [1] | EC50 ([1]; Human immunodeficiency virus 1, Table 2, cells infected with lentiviral vector harboring WT IN, read-out: EC50) | EC50 [1, 8] | Integrase Mutants KK (E138K-Q148K), fold-change in EC50 relative to WT [6] | EC50 [1, 9] | EC50 (HIV-1 WT IN; [10]) | EC50 (HIV-1 WT IN; [11]) | Si (selectivity index) ([1]; Table 3, ratio of CC50 to EC50) |
| --- | --- | --- | --- | --- | --- | --- | --- | --- | --- | --- | --- | --- | --- | --- | --- | --- | --- | --- |
| CC(=O)OCCCc1cnc2c(c1)c(N)c(C(=O)NCc1ccc(F)cc1F)c(=O)n2O [XZ424, 3-(5-Amino-6-((2,4-difluorobenzyl)carbamoyl)-8-hydroxy-7-oxo-7,8-dihydro-1,8-naphthyridin-3-yl)propyl acetate] | > 250000 nM | 1.4 nM | 0.75 nM | 1.2 nM | 0.8 nM | 3.9 nM | – | – | – | – | – | – | – | – | – | – | – | – |
| O=C(NCc1ccc(F)cc1F)c1c(O)c2cccnc2n(O)c1=O [XZ351, N-(2,4-difluorobenzyl)-1,4-dihydroxy-2-oxo-1,2-dihydro-1,8-naphthyridine-3-carboxamide] | – | – | – | – | – | – | 137000 nM | 137000 ± 20100 nM | 137000 ± 20100 nM | 22,767 | 22,032 | 6 nM | 6.2 ± 2.9 nM | 32 x | – | – | – | – |
| Nc1c(C(=O)NCc2ccc(F)cc2F)c(=O)n(O)c2ncc(CCCO)cc12 [XZ423, 4-Amino-N-(2,4-difluorobenzyl)-1-hydroxy-6-(3-hydroxypropyl)-2-oxo-1,2-dihydro-1,8-naphthyridine-3-carboxamide] | > 250000 nM | 3.1 nM | 1.1 nM | 4.8 ± 2 nM | 2.6 nM | 14.7 nM | – | – | – | – | – | – | – | – | – | – | – | – |
| COC(=O)CCc1cnc2c(c1)c(N)c(C(=O)NCc1ccc(F)cc1F)c(=O)n2O [XZ434, Methyl 3-(5-amino-6-((2,4-difluorobenzyl)carbamoyl)-8-hydroxy-7-oxo-7,8-dihydro-1,8-naphthyridin-3-yl)propanoate] | > 250000 nM | 0.67 nM | 0.53 nM | 2 ± 1.1 nM | 0.63 nM | 2.4 nM | – | – | – | – | – | – | – | – | 0.7 ± 0.2 nM | 0.62 ± 0.2 nM | 0.6 nM | – |
| COC(=O)CNc1c(C(=O)NCc2ccc(F)cc2F)c(=O)n(O)c2ncccc12 [XZ379, Methyl 2-((3-((2,4-difluorobenzyl)carbamoyl)-1-hydroxy-2-oxo-1,2-dihydro-1,8-naphthyridin-4-yl)amino)acetate] | – | – | – | – | – | – | – | > 250000 nM | > 250000 nM | – | – | – | 3.8 ± 1.2 nM | – | 3.8 ± 1.2 nM | 5 nM | 1 nM | >25,000 |
| C[C@@H]1CCO[C@H]2Cn3cc(C(=O)NCc4ccc(F)cc4F)c(=O)c(O)c3C(=O)N12 [DTG, dolutegravir, reference compound] | > 250000 nM | 1.6 nM | 0.9 nM | 2.3 nM | 3.2 nM | 16 nM | – | – | – | – | – | – | – | – | – | – | – | – |
| Nc1c(C(=O)NCc2ccc(F)cc2F)c(=O)n(O)c2ncc(CCCCCO)cc12 [XZ419, 4-Amino-N-(2,4-difluorobenzyl)-1-hydroxy-6-(5-hydroxypentyl)-2-oxo-1,2-dihydro-1,8-naphthyridine-3-carboxamide] | > 250000 nM | 1.3 nM | 0.93 nM | 3.8 nM | 3.8 nM | 2.6 nM | – | – | – | – | – | – | – | – | 1.3 ± 0.2 nM | 0.93 ± 0.2 nM | 2.1 ± 0.4 nM | – |
| Nc1c(C(=O)NCc2ccc(F)cc2F)c(=O)n(O)c2ncc(CCCCCCCCO)cc12 [XZ433, 4-Amino-N-(2,4-difluorobenzyl)-1-hydroxy-6-(8-hydroxyoctyl)-2-oxo-1,2-dihydro-1,8-naphthyridine-3-carboxamide] | > 250000 nM | 3.7 nM | 1.7 nM | 2.6 nM | 4.8 nM | 22.4 nM | – | – | – | – | – | – | – | – | – | – | – | – |
| CC(=O)OCCNc1c(C(=O)NCc2ccc(F)cc2F)c(=O)n(O)c2ncccc12 [XZ402, 2-((3-((2,4-difluorobenzyl)carbamoyl)-1-hydroxy-2-oxo-1,2-dihydro-1,8-naphthyridin-4-yl)amino)ethyl acetate] | – | – | – | – | – | – | – | > 250000 nM | > 250000 nM | – | – | – | 4.5 ± 1.5 nM | – | 4.5 ± 1.5 nM | 2.2 ± 0.3 nM | 1 nM | >25,000 |
| O=C(NCc1ccc(F)cc1F)c1c(NCCO)c2cc(CCCCCO)cnc2n(O)c1=O [XZ437, N-(2,4-Difluorobenzyl)-1-hydroxy-4-((2-hydroxyethyl)amino)-6-(5-hydroxypentyl)-2-oxo-1,2-dihydro-1,8-naphthyridine-3-carboxamide] | > 250000 nM | 13 nM | 1.9 nM | 6.5 nM | 10.8 nM | 30.9 nM | – | – | – | – | – | – | – | – | – | – | – | – |
| COC(=O)CCc1cnc2c(c1)c(NCCO)c(C(=O)NCc1ccc(F)cc1F)c(=O)n2O [XZ438, Methyl 3-(6-((2,4-difluorobenzyl)carbamoyl)-8-hydroxy-5-((2-hydroxyethyl)amino)-7-oxo-7,8-dihydro-1,8-naphthyridin-3-yl)propanoate] | > 250000 nM | 4.1 ± 1 nM | 0.62 nM | 2.7 nM | 6.9 nM | 2.5 nM | – | – | – | – | – | – | – | – | – | – | – | – |
| O=C(NCc1ccc(F)cc1F)c1c(O)c2c(CO)ccnc2n(O)c1=O [XZ440, N-(2,4-Difluorobenzyl)-1,4-dihydroxy-5-(hydroxymethyl)-2-oxo-1,2-dihydro-1,8-naphthyridine-3-carboxamide] | > 250000 nM | 7.3 nM | 1.4 nM | 4 ± 0.6 nM | 5 nM | 9 ± 0.6 nM | – | – | – | – | – | – | – | – | – | – | – | – |
| Nc1c(C(=O)NCc2ccc(F)cc2F)c(=O)n(O)c2ncc(CCCCCCO)cc12 [XZ426, 4-Amino-N-(2,4-difluorobenzyl)-1-hydroxy-6-(6-hydroxyhexyl)-2-oxo-1,2-dihydro-1,8-naphthyridine-3-carboxamide] | > 250000 nM | 2.33 nM | 0.5 nM | 0.74 nM | 1.6 nM | 5.2 nM | – | – | – | – | – | – | – | – | 2.3 ± 0.6 nM | 0.8 ± 0.2 nM | – | – |

Source: patent US9676771B2, “Compounds for inhibiting drug-resistant strains of HIV-1 integrase” (priority 2013, dated 2017)
